Structures are written as SMILES. In brackets after ≈: the same amount, converted by molar mass.

Assay [1] relates to MET3P-ERG1 construct. The assay is described as follows: Sensitivity of the MET3P-ERG1 construct to antifungal drugs (MICs, 96-well format plate). Format: cell-based, Candida albicans. Particulars: for MIC: Candida albicans, at 20 hrs, MET3P-ERG1 construct; for sensitivity to the drug altered by the presence of methionine: drugs not known to be inhibitors of the CaERG1 product. Here is the method:
In order to assess whether cells containing the ERG1−MET promoter construct would display hypersensitivity to terbinafine upon the addition of methionine in comparison to cells for which no methionine was added, cells were grown in the 384 well-plate as described above. A final concentration of 0.05 mM methinone was added to wells within one plate of cells and a control plate, in which SD+His broth was added in lieu of methionine was added to a second plate. 8 μl of various concentrations of terbinafine in 10.26% DMSO was added to both the control and test plates. The concentrations of terbinafine added to different wells ranged from 163 μg/ml to 0.02 μg/ml. […] After the addition of this inhibitor, both the control and experimental plates were incubated at 35° C. After 18 hours of incubation, the OD readings were taken of the plates to measure cell growth (595 nm). […] Increased sensitivity of cells containing the ERG1−MET3 was confirmed in a separate experiment using a 96-well format plate.
Furthermore, results of additional experiments conducted with the drugs sordarin and fluconazole which are not known to be inhibitors of the CaERG1 polynucleotide product confirm that sensitivity to these drugs is not altered by the presence of methionine.

Assay [2] has as its system MET3P-ERG1 construct. Conditions: 0.5 mM methionine; growth monitored between 16 and 24 hours, OD 595 nm; FIG. 9.
Description: Cells were diluted from these cultures to 757,002 cfu/ml in SD+His medium. 35 μl of the diluted cells were dispensed into wells of a 384-well plate containing 8 μl of 10.26% DMSO. […] Cell growth was monitored between 16 and 24 hours by reading the optical density at 595 nm.
Assay [3] has as its system ergosterol biosynthetic pathway in strain caerg1Δ/PMET3-CaERG1. The assay is described as follows: Incorporation of labeled acetate into sterols (TLC, scintillation counting), control strain. Format: cell-based, Candida albicans. Particulars: FIG. 22A, lanes 1 and 2; 90 minute induction period. The protocol: (§1) Overnight cultures were diluted into fresh SD+histidine (His) broth and grown at 30° C. until logarithmic growth was established. Cultures were harvested by centrifugation. Cells were then separated into tubes at a final density of 0.25 OD600 containing either fresh SD+His broth or SD+His broth containing 5 mM methionine (Met) and 2.5 mM cysteine (Cys). At the end of either a 0.75, 1.5, 3 or 4.5 hour incubation period, the OD600 values of each tube were measured and cultures were adjusted to a density of 0.25 OD600 units per ml (2 mls per tube). Cultures were then pulsed with 2 μCi/tube of [^3H]-acetic acid for 60 minutes.
(§2) At the end of the labeling period, cells were pelleted and rinsed 1× with medium. The washed pellet was resuspended with 1 ml of 0.1 N HCl, transferred to glass screw-capped tubes, and incubated for 5 minutes at 85° C. […]
(§3) Dried samples were disolved in petroleum ether and spotted onto a 20 cm×20 cm silica gel 60 TLC plate. […] The location of radiolabeled spots on the TLC plate was determined by matching the exposed spots on the autoradiogram.
(§4) In order to quantitate the radioactivity associated with the ergosterol pathway products, the silica gel corresponding to the exposed spots was excised from the plate and mixed with 0.5 ml of water, then mixed with 5 mls of scintillation cocktail prior to scintillation counting. […]

For assay [4], the system named is ergosterol biosynthetic pathway in strain fcg5Δ/PMET3-FCG5. The assay is described as follows: Incorporation of labeled acetate into sterols (TLC, scintillation counting), test strain. Format: cell-based, Candida albicans. Conditions: FIG. 22B; majority of the counts trapped in squalene. Here is the method: as §1, §2, §3, §4
Assay [5] has as its system MET3 promoter-CaERG1 cells. Kind of assay: Drug hypersensitivity whole cell assay, 384-well plate: MET3 promoter-CaERG1 cells with and without methionine. It is filed as cell-based, Candida albicans. Conditions: 0.05 mM methionine, 18 hours at 35° C, OD 595 nm, FIG. 10. The protocol:
In order to determine if essential polynucleotide products could be reduced in fungal cells resulting in drug hypersensitivity, a high throughput whole cell assay was designed. The known C. albicans essential polynucleotide corresponding ERG1 polynucleotide in S. cervisiae was tested. CaERG 1 codes for squaline epoxidase and is known to be inhibited by terbinafine. The first polynucleotide copy was disrupted as described above and the second polynucleotide copy was modified by promoter swapping with MET3 promoter, also as described above.
The optimal cell density needed to control cell growth in a 384-well plate within the log phase after 18 hours incubation at 35° C. was first determined. […] At different time intervals, the plate was withdrawn from the incubator and the cell growth was determined by reading absorbance at 590 nm on a Perkin Elmer 7000 machine.
In order to assess whether cells containing the ERG1−MET promoter construct would display hypersensitivity to terbinafine upon the addition of methionine in comparison to cells for which no methionine was added, cells were grown in the 384 well-plate as described above. […] After 18 hours of incubation, the OD readings were taken of the plates to measure cell growth (595 nm). […]

The MIC is the least concentration at which growth counts as inhibited. For the compound `CO[C@H]1[C@@H](O)[C@H](O)[C@H](OC[C@@]23C[C@@H]4[C@H](C)CC[C@H]4[C@@]4(C=O)CC2C=C(C(C)C)[C@@]34C(=O)O)O[C@@H]1C` [Sordarin], the minimum inhibitory concentration (MIC) against MET3P-ERG1 construct [1] (absence of methionine) was 0.5 µg/mL (≈ 1.02 µM); with MET3P-ERG1 construct [1] (presence of methionine), 0.5 µg/mL. Also, the “sensitivity to the drug altered by the presence of methionine” value with MET3P-ERG1 construct [1] was “not altered”.

Regarding `CSCC[C@H](N)C(=O)O` [methionine], the “reduction of cell growth” value in the assay with MET3P-ERG1 construct [2] was “approximately 50%”.

On to `CN(C/C=C/C#CC(C)(C)C)Cc1cccc2ccccc12` [Terbinafine], for which, in assay [3], the “effect on ergosterol biosynthesis (TLC autoradiogram)” value is recorded as “a block in ergosterol biosynthesis at squalene”. Also, in assay [4], the “effect on incorporation of radiolabelled acetate into ergosterol (TLC autoradiogram)” value is listed as “blocked the incorporation of radiolabelled acetate into ergosterol”. Moreover, the “increase in sensitivity in the presence of methionine comparing to the no methionine control” value in assay [5] is listed as 4-8 fold. In the assay on MET3P-ERG1 construct [1] (96-well format plate, Table 7), the “increase in sensitivity when promoter activity was down regulated by the presence of methionine” value is on record as 16-32 fold. Also, the MIC with MET3P-ERG1 construct [1] (presence of methionine) turned out to be 0.5 µg/mL.

For the compound `OC(Cn1cncn1)(Cn1cncn1)c1ccc(F)cc1F` [Fluconazole], the MIC with MET3P-ERG1 construct [1] (absence of methionine) was 1 µg/mL (≈ 3.27 µM); with MET3P-ERG1 construct [1] (presence of methionine), 1 µg/mL. The “sensitivity to the drug altered by the presence of methionine” value in the assay on MET3P-ERG1 construct [1] was “not altered”.

The record behind these values is patent publication US7442532B2, “Essential fungal CaYLR100w polypeptides, and methods of use” (Bristol-Myers Squibb Company, priority 2003, dated 2008).
